These results are taken from patent publication US20200352880A1 (priority 2019, published 2020).

One test has as its system α7nAChR and S100A9. Nature of the test: immunofluorescence of α7nAChR and S100A9 in PMNs incubated with E44. The following applies: PMNs with bacteria (E44), compared to bacteria groups. Type of test: cell-based. As to the method: The next step is to further examine whether alpha7 nicotinic acetylcholine receptor (α7nAChR) is associated with antimicrobial protein S100A9 during the process of phagocytizing E44 by PMNs. […] Next, an immunofluorescence staining test is performed on the samples as follows: a primary antibody is added to incubate with α7nAChR and S100A9 overnight at 4° C., and then the corresponding FITC and PE-conjugated secondary antibodies are added to incubate for 1 hour at room temperature, after mounting the samples on microscope slides with DAPI sealing, positioning and expression of α7nAChR and S100A9 are observed under a fluorescence microscope. Compared to the control group, S100A9 (red) is redistributed to the cell edge and area around the nucleus (FIG. 6) after infected with E44, it is observed that α7nAChR (green) and S100A9 (red) are located in the same position with presenting of colocalization, and the expression of both is elevated, α7nAChR (green) and S100A9 (red) also appear to have a high degree of colocalization(R close to 1) after ImageJ software analysis.

In a further test the test system is MRSA. Nature of the test: killing of MRSA by neutrophils. Conditions: increased concentration of MEM (1-25 μM); concentration-dependent. Type of test: cell-based, methicillin-resistant Staphylococcus aureus. As to the method: (§1) The bactericidal functions of neutrophils include phagocytosis and NET-mediated killing. […] Experiments are performed according to the procedures described in Reference 2. […] The bacteria are collected and spread over Brain Heart Infusion (BHI) agar plates containing rifampin and allowed to culture for 12-16 hours, then the number of bacterial colonies of each sample is counted. […] After 1-hour incubation, the samples are centrifuged, collected, and mounted on microscope slides, which are sealed after DAPI staining, then phagocytosis of PMNs is observed and phagocytized particles are counted under a fluorescence microscope. […] However, early phagocytosis is not accompanied by a significant change in PMN structure when MOI<50. When MOI>50, each PMN on average includes at least 50 E44, a significant nuclear morphological change occurs.
(§2) Experimental procedures of MEM enhancing NET formation and facilitating killing of MRSA by neutrophils are the same as described previously.

A further test deals with cBMECs. Nature of the test: number of circulating brain microvascular endothelial cells (cBMECs) in blood. Conditions: in vivo. As to the method:
The protocol is prepared as follows:
According to manufacturer's instructions, Dynabeads M-450 solution with a final concentration of 4×10^8 beads/ml is prepared by Hank's Balanced Salt Solution. BMECs in brain tissues and blood are isolated using UEA I. The BMECs from the brain tissues are cultured with RPMI-1640 medium containing 10% fetal bovine serum and identified using CD146 and Mfsd2a antibodies.

Test [1] relates to neutrophils. Nature of the test: MRSA-induced NET formation (release of neutrophil DNA). Type of test: cell-based.
From the text: (§3) Since DNA is a major component of NETs, NET formation is first examined by determining the amount of DNA released from neutrophils. […] Methods are described in Reference 1.
as §2

The subject of test [2] is neutrophils. As to the kind of experiment: E44-induced NET formation: DNA release (PicoGreen) and neutrophil elastase (NETosis Assay Kit) from neutrophils. The format is cell-based. The following applies: concentration-dependent.
From the text: as §3
The methods of neutrophil isolation and preparation are similar to those described previously, and the amount of NE is detected by following kit instructions.

The test system of test [3] is E44. Nature of the test: spread of E44 in infected mice (bacterial counts in blood, livers, lungs, spleens). Type of test: in vivo, C57 mice. Conditions: MEM 5-10 μg/g body weight intraperitoneally, 24 hours. As to the method: After 24 hours of E44 infection, the mice are dissected to obtain blood, livers, lungs, and spleens under aseptic condition. The obtained blood, after performing an appropriate serial dilution, is spread over BHI (containing rifampin) agar plates. The obtained livers, lungs, and spleens are precisely weighed, added with pre-cooled sterile PBS in a ratio of 0.1 g/ml, and fully homogenized. The homogenates, after performing an appropriate serial dilution, are spread over BHI (containing rifampin) agar plates.
After confirming that MEM may enhance NET formation in bacteria-infected mice, whether MEM may block the spread of bacteria in mice is discussed. […] After 24 hours of bacterial infection, the mice are dissected to obtain blood, livers, lungs, and spleens under aseptic condition for bacterial count determination.

The subject of test [4] is E44. As to the kind of experiment: killing, NET trapping and phagocytosis of E44 by neutrophils. The format is cell-based, E. coli. As to the method:
as §1

The next test concerns PMNs. As to the kind of experiment: immunofluorescence of MPO, S100A9 and DNA in PMNs (NET formation). The format is cell-based. The following applies: PMA groups and E44 groups treated with MEM.
The target in the next test is α7nAChR (Homo sapiens, UniProt P36544). The following applies: cited from earlier work.
Another test concerns mouse BMECs. Nature of the test: gene expression profile of E44-infected BMECs by Next Generation Sequencing. Type of test: cell-based. The following applies: E44 infection 0.5 hours. As to the method:
After the mouse BMECs are infected with E44 for 0.5 hours, the cells are collected to extract RNA, which is sent to Hua-Da Company (China) for Next Generation Sequencing analysis.
After the mouse BMECs are infected with E44 for 0.5 hours, the cells are collected to extract RNA, which is sent to Hua-Da Company (China) to analyze alterations on gene expression profile using Next Generation Sequencing and look for differentially expressed genes, a total of 978 differentially expressed genes are found.

Test [5] deals with E44. As to the kind of experiment: killing of E44 by phagocytosis in dHL60 cells after CHRNA7 siRNA silencing. Type of test: cell-based, E. coli. Conditions: MEM dose up to 50 μM. As to the method: FIGS. 5A, 5B, 5C, and 5D illustrate the influence on phagocytosis by PMNs after gene silencing of CHRNA7 and S100A9. 2×10^6/ml HL60 cells are treated with 1.3% DMSO for cell stimulation and induction, and cell morphology is observed under an inverted microscope after 4-5 days. Compared to the control group, the cell volume gradually enlarges, granulocyte nuclear shapes such as kidney-shaped (banded) nucleus, segmented (multi-lobed) nucleus, bean-shaped nucleus appear after 48 hours and gradually increase over time. Cell status of each experimental group is identified using Typan Blue Exclusion Test and Wright-Giemsa Stain Method to meet the requirements for cell quality in follow-up studies. Differentiated neutrophils are added with CHRNA7 and S100A9siRNA, respectively, and treated with lipofectamine 2000 in 24-well plates, a supplemental complete cell culture medium is added after 6 hours to incubate for 48 hours, and the expression of CHRNA7 and S100A9 in differentiated HL60 (dHL60) cells is examined. Control siRNA acts as the control group, and GAPDH represents the housekeeping gene.
Samples are prepared by the dHL60 cells and E44 in a ratio of 1:5 and allowed to interact for 1 hour.

The test system of test [6] is E44. As to the kind of experiment: NET formation in E44-infected mice (serum free DNA and NE). The format is in vivo, C57 mice. The following applies: MEM 5-10 μg/g body weight intraperitoneally, 24 hours. As to the method: After 24 hours, serum is obtained from blood samples collected from hearts, and the amounts of free DNA and neutrophil elastase (NE) in the serum of each mouse are determined using PicoGreen and Mouse PMN Elastase ELISA Kit (R&D Systems) respectively.

Sequence of α7nAChR (P36544 23-502): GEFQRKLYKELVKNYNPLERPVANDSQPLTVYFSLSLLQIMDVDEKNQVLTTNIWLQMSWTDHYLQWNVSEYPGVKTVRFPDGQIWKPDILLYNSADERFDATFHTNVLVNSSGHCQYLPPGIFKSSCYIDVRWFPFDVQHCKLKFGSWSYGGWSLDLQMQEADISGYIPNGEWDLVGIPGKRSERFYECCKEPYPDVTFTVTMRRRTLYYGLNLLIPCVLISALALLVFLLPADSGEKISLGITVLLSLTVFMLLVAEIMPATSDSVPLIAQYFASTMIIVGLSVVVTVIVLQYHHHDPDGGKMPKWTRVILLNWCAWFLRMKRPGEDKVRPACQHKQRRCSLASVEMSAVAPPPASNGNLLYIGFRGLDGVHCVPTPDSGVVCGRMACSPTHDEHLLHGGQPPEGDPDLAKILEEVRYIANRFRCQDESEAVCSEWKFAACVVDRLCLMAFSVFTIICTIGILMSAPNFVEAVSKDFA

As to `C[C@]12C[C@@H]3C[C@](C)(C1)C[C@@](N)(C3)C2.Cl` [MEM, 3,5-Dimethyl-1-aminoadamantane hydrochloride], in the test on α7nAChR and S100A9, the “degree of colocalization of α7nAChR and S100A9” value is reported as “remarkably reduced”; the “expression of α7nAChR and S100A9” value was “significantly decreased”. Moreover, the “survival rate of MRSA” value in the test on MRSA was “gradually decreases”. In addition, the “number of cBMECs in blood” value in the test with cBMECs was “reduce”. Further, the “release of neutrophil DNA under the effect of MRSA” value with neutrophils [1] was “significantly enhance”. Moreover, in the test with neutrophils [2] (E44 MOI=10, different concentrations of MEM, 4 hours), the “release of DNA from neutrophils under the effect of E44” value is on record as “significantly enhanced”. In addition, the “production of neutrophil elastase (NE) under the effect of E44” value in the test with neutrophils [2] (E44 with addition of MEM) was “significantly increased”. Also, the “spread of bacteria (E44) in mice” value with E44 [3] is listed as “significantly block”. In the test on E44 [4] (50 μM MEM, E44 MOI=1, 5, 50, 100, 1-hour incubation, versus E44 groups), the “phagocytosis of E44 by PMNs” value is “more E44 are phagocytized”. In addition, in the test on E44 [4] (DNase used to dissolve DNA), the “NETs trapping of E44” value was “concentration-dependently enhance”. Further, in the test on E44 [4] (E44 MOI=10, MEM 0, 10, 20, 50 μM, 2 hours, with or without Cytochalasin D), the “killing of E44 by neutrophils, including phagocytosis and NET-mediated killing” value is “concentration-dependently enhance”. In addition, the “MPO, S100A9 and DNA formation (NET formation)” value in the test on PMNs was “a large number of MPO (green), S100A9 (red), and DNA (blue) are formed”. Also, at α7nAChR, the “inhibitory effect on α7nAChR compared with inhibitory effect on NMDAR” value was “stronger”. Further, in the test on mouse BMECs, the “E44-induced alterations on gene expression” value is “reverse”; the “anti-inflammatory genes IL-33, IL-18rap, MMP10, Irs1 expression” value was “significantly up-regulate”; the “pro-inflammatory genes A20, CISH, Ptgds, ZEP36 expression” value is recorded as “down-regulate”. In the test on E44 [5], the “effect of MEM on phagocytizing bacteria by PMNs after CHRNA7 down-regulation” value was “not obvious”. For the same molecule, in the test on E44 [6], the “NE in the blood (serum) of E44-infected mice” value is “significantly enhance” and the “free DNA in the blood (serum) of E44-infected mice” value was “significantly enhance”.
